Measured values: patent US8158628B2, “Sulfonylated 1,2,3,4-tetrahydropyrrolo[1,2-a]pyrazine compounds and their use as pharmaceuticals” (Gruenenthal GmbH, priority 2009, dated 2012)

Target: T1, B1R of the rat (Rattus norvegicus, UniProt P97583)
T1 construct: expressed in transfected cells; host or cells: CHO K1 cells (Chinese hamster ovary), stably transfected
T1 sequence (P97583 1-337): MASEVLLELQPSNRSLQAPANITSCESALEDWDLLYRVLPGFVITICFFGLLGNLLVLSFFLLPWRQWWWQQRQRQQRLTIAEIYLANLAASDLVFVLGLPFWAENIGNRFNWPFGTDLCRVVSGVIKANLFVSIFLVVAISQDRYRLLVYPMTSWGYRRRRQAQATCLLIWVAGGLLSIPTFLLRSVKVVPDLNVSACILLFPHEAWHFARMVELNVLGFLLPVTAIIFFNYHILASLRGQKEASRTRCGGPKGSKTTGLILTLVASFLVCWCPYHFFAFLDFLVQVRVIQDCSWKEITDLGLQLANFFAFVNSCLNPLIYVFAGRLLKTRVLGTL
Test: FLIPR Ca2+ functional assay, B1R antagonism, rat B1R in CHO K1 cells
Assay type: cell-based
Settings: test substance 10 μM; rB1R CHO K1 cells; agonist Des-Arg9 bradykinin at EC80; % of maximum achievable inhibition
Experimental: The agonistic or antagonistic action of substances on the bradykinin 1 receptor (B1R) of the human and rat species can be quantified with ectopically expressing cell lines (CHO K1 cells) and with the aid of a Ca^2+-sensitive dye (Fluo-4) using a fluorescent imaging plate reader (FLIPR). The value in % activation is based on the Ca^2+ signal after addition of Lys-Des-Arg^9 bradykinin (0.5 nM) or Des-Arg^9 bradykinin (100 nM). Antagonists lead to a suppression of the Ca^2+ influx following administration of the agonist. The % inhibition in comparison with the maximum achievable inhibition is indicated.
1. Functional Investigation on the Bradykinin 1 Receptor (B1R) The agonistic or antagonistic action of substances can be determined on the bradykinin 1 receptor (B1R) of the human and rat species with the following assay. According to this assay, the Ca^2+ inflow through the channel is quantified with the aid of a Ca^2+-sensitive dye (Fluo-4 type, Molecular Probes Europe BV, Leiden, Netherlands) in a fluorescent imaging plate reader (FLIPR, Molecular Devices, Sunnyvale, USA). 2. Method: Chinese hamster ovary cells (CHO K1 cells) which are stably transfected with the human B1R gene (hB1R cells) or the B1R gene of the rat (rB1R cells) are used. For functional investigations these cells are plated-out onto black 96-well plates with a clear base (BD Biosciences, Heidelberg, Germany or Greiner, Frickenhausen, Germany) in a density of 20,000-35,000 cells/well. Overnight the cells are incubated at 37° C. and 5% CO2 in culture medium (hB1R cells: Ham's Nutrient Mixture F12, Gibco Invitrogen GmbH, Karlsruhe, Germany or DMEM, Sigma-Aldrich, Taufkirchen, Germany; rB1R cells: D-MEM/F12, Gibco Invitrogen, Karlsruhe, Germany) with 10 vol. % FBS (foetal bovine serum, Gibco Invitrogen GmbH, Karlsruhe, Germany or PAN Biotech GmbH, Aidenbach, Germany).
On the following day the cells are loaded with 2.13 μM Fluo-4 (Molecular Probes Europe BV, Leiden, Netherlands) in HBSS buffer (Hank's buffered saline solution, Gibco Invitrogen GmbH, Karlsruhe, Germany) with 2.5 mM probenecid (Sigma-Aldrich, Taufkirchen, Germany) and 10 mM HEPES (Sigma-Aldrich, Taufkirchen, Germany) for 60 min at 37° C. The plates are subsequently washed twice with HBSS buffer, and HBSS buffer which additionally contains 0.1% BSA (bovine serum albumin; Sigma-Aldrich, Taufkirchen, Germany), 5.6 mM glucose and 0.05% gelatine (Merck KGaA, Darmstadt, Germany) is added. After a further incubation of 20 minutes at RT, the plates are inserted into the FLIPR for Ca^2+ measurement. Alternatively they are washed with buffer A (15 mM HEPES, 80 mM NaCl, 5 mM KCl, 1.2 mM CaCl2, 0.7 mM MgSO4, 2 g/l glucose, 2.5 mM probenecid) and loaded with buffer A with added 2.5 μM Fluo-4 and 0.025% Pluronic F127 (Sigma-Aldrich, Taufkirchen, Germany). The cells are then washed twice with buffer A and incubated for 30 minutes with buffer A, which additionally contains 0.05% BSA and 0.05% gelatine, at RT and then used for Ca^2+ measurement in the FLIPR. The Ca^2+-dependent fluorescence is measured here before and after addition of substances (λex=488 nm, λem=540 nm). The quantification is performed by measuring the highest fluorescence intensity (FC, fluorescence counts) over time.
The FLIPR protocol comprises two additions of substance. Test substances (10 μM) are first pipetted onto the cells and the Ca^2+ inflow is compared with the control (hB1R: Lys-Des-Arg^9 bradykinin >=50 nM; rB1R: Des-Arg^9 bradykinin 10 μM). The value in % activation based on the Ca^2+ signal after addition of Lys-Des-Arg^9 bradykinin (>=50 nM) or Des-Arg^9 bradykinin (10 μM) is obtained therefrom. After incubation for 10-20 minutes, Lys-Des-Arg^9 bradykinin (hB1R) or Des-Arg^9 bradykinin (rB1R) is applied in the EC80 concentration and the inflow of Ca^2+ is likewise determined.
Antagonists lead to a suppression of the Ca^2+ inflow. The % inhibition in comparison with the maximum achievable inhibition is calculated. […]

Compound | inhibition at 10 µM
O=C(CC1c2cccn2CCN1S(=O)(=O)c1ccccc1)N1CCN(c2ccc(Cl)c(Cl)c2)CC1 (stereo not shown) [Example 231, 2-[2-(Benzenesulfonyl)-1,2,3,4-tetrahydro-pyrrolo[1,2-a]pyrazin-1-yl]-1-[4-(3,4-dichlorophenyl)-piperazin-1-yl]-ethanone] | -0.67%
Cc1cccc(Cl)c1S(=O)(=O)N1CCn2cccc2C1CC(=O)N1CCCCC1Cc1ccncc1 (stereo not shown) [Example 251, 2-[2-[(2-Chloro-6-methyl-phenyl)sulfonyl]-1,2,3,4-tetrahydro-pyrrolo[1,2-a]pyrazin-1-yl]-1-[2-(pyridin-4-yl-methyl)-piperidin-1-yl]-ethanone] | -37.1%
Cc1cccc(Cl)c1S(=O)(=O)N1CCn2cccc2C1CC(=O)N1CCC(N2CCOCC2)CC1 (stereo not shown) [Example 159, 2-[2-[(2-Chloro-6-methyl-phenyl)sulfonyl]-1,2,3,4-tetrahydro-pyrrolo[1,2-a]pyrazin-1-yl]-1-(4-morpholin-4-yl-piperidin-1-yl)-ethanone] | 3.48%
O=C(CC1c2cccn2CCN1S(=O)(=O)c1ccccc1)N1CCN(c2ncccn2)CC1 (stereo not shown) [Example 179, 2-[2-(Benzenesulfonyl)-1,2,3,4-tetrahydro-pyrrolo[1,2-a]pyrazin-1-yl]-1-(4-pyrimidin-2-yl-piperazin-1-yl)-ethanone] | 20.8%
CC1CCCC(C)N1CCCNC(=O)CC1c2cccn2CCN1S(=O)(=O)c1ccccc1 (stereo not shown) [Example 169, 2-[2-(Benzenesulfonyl)-1,2,3,4-tetrahydro-pyrrolo[1,2-a]pyrazin-1-yl]-N-[3-(2,6-dimethyl-piperidin-1-yl)-propyl]-acetamide] | 7.57%
COc1cc(C)c(S(=O)(=O)N2CCn3cccc3C2CC(=O)N(C)C(CN2CCOCC2)c2ccccc2)c(C)c1 (stereo not shown) [Example 256, 2-[2-[(4-Methoxy-2,6-dimethyl-phenyl)sulfonyl]-1,2,3,4-tetrahydro-pyrrolo[1,2-a]pyrazin-1-yl]-N-methyl-N-(2-morpholin-4-yl-1-phenyl-ethyl)-acetamide] | 5.54%
Cc1cc(C)c(CN2CCN(C(=O)CC3c4cccn4CCN3S(=O)(=O)c3cccc(C(F)(F)F)c3)CC2)c(C)c1 (stereo not shown) [Example 236, 2-[2-[[3-(Trifluoromethyl)phenyl]sulfonyl]-1,2,3,4-tetrahydro-pyrrolo[1,2-a]pyrazin-1-yl]-1-[4-[(2,4,6-trimethyl-phenyl)-methyl]-piperazin-1-yl]-ethanone] | 9.23%
O=C(CC1c2cccn2CCN1S(=O)(=O)c1ccccc1)N1CCC[C@H]1CN1CCCC1 (stereo partly drawn) [Example 264, 2-[2-(Benzenesulfonyl)-1,2,3,4-tetrahydro-pyrrolo[1,2-a]pyrazin-1-yl]-1-[(2S)-2-(pyrrolidin-1-yl-methyl)-pyrrolidin-1-yl]-ethanone] | 1.78%
COc1ccc(N2CCN(C(=O)CC3c4cccn4CCN3S(=O)(=O)c3ccc(C(F)(F)F)cc3Cl)CC2)cc1 (stereo not shown) [Example 237, 2-[2-[[2-Chloro-4-(trifluoromethyl)-phenyl]sulfonyl]-1,2,3,4-tetrahydro-pyrrolo[1,2-a]pyrazin-1-yl]-1-[4-(4-methoxyphenyl)-piperazin-1-yl]-ethanone] | 9.45%
COc1cc(C)c(S(=O)(=O)N2CCn3cccc3C2CC(=O)N2CCC(Cc3ccccc3)CC2)c(C)c1 (stereo not shown) [Example 257, 1-(4-Benzyl-piperidin-1-yl)-2-[2-[(4-methoxy-2,6-dimethyl-phenyl)sulfonyl]-1,2,3,4-tetrahydro-pyrrolo[1,2-a]pyrazin-1-yl]-ethanone] | 75.5%
COc1ccc(CN2CCN(C(=O)CC3c4cccn4CCN3S(=O)(=O)c3ccccc3)CC2)cc1 (stereo not shown) [Example 233, 2-[2-(Benzenesulfonyl)-1,2,3,4-tetrahydro-pyrrolo[1,2-a]pyrazin-1-yl]-1-[4-[(4-methoxyphenyl)-methyl]-piperazin-1-yl]-ethanone] | 20.6%
Cc1cccc(Cl)c1S(=O)(=O)N1CCn2cccc2C1CC(=O)N1CCN(c2ncc(C(F)(F)F)cc2Cl)CC1 (stereo not shown) [Example 262, 2-[2-[(2-Chloro-6-methyl-phenyl)sulfonyl]-1,2,3,4-tetrahydro-pyrrolo[1,2-a]pyrazin-1-yl]-1-[4-[3-chloro-5-(trifluoromethyl)-pyridin-2-yl]-piperazin-1-yl]-ethanone] | -12.5%
O=C(CC1c2cccn2CCN1S(=O)(=O)c1ccccc1)NCCN1CCCC1 (stereo not shown) [Example 168, 2-[2-(Benzenesulfonyl)-1,2,3,4-tetrahydro-pyrrolo[1,2-a]pyrazin-1-yl]-N-(2-pyrrolidin-1-yl-ethyl)-acetamide] | 40.1%
CN1CCN(CC(NC(=O)CC2c3cccn3CCN2S(=O)(=O)c2ccccc2)c2ccccc2)CC1 (stereo not shown) [Example 170, 2-[2-(Benzenesulfonyl)-1,2,3,4-tetrahydro-pyrrolo[1,2-a]pyrazin-1-yl]-N-[2-(4-methyl-piperazin-1-yl)-1-phenyl-ethyl]-acetamide] | 68.4%
CN(C)c1ccc(C2CCCN2C(=O)CC2c3cccn3CCN2S(=O)(=O)c2ccc(C(F)(F)F)cc2Cl)cc1 (stereo not shown) [Example 270, 2-[2-[[2-Chloro-4-(trifluoromethyl)-phenyl]sulfonyl]-1,2,3,4-tetrahydro-pyrrolo[1,2-a]pyrazin-1-yl]-1-[2-(4-dimethylaminophenyl)-pyrrolidin-1-yl]-ethanone] | 3.1%
O=C(CC1c2cccn2CCN1S(=O)(=O)c1ccccc1)N1CCN(c2ccc(C(F)(F)F)cn2)CC1 (stereo not shown) [Example 183, 2-[2-(Benzenesulfonyl)-1,2,3,4-tetrahydro-pyrrolo[1,2-a]pyrazin-1-yl]-1-[4-[5-(trifluoromethyl)-pyridin-2-yl]-piperazin-1-yl]-ethanone] | 56.1%
Cc1ccc2[nH]c(C3CCN(C(=O)CC4c5cccn5CCN4S(=O)(=O)c4c(C)cccc4Cl)CC3)nc2c1 (stereo not shown) [Example 163, 2-[2-[(2-Chloro-6-methyl-phenyl)sulfonyl]-1,2,3,4-tetrahydro-pyrrolo[1,2-a]pyrazin-1-yl]-1-[4-(5-methyl-1H-benzoimidazol-2-yl)-piperidin-1-yl]-ethanone] | 39.7%
O=C(CC1c2cccn2CCN1S(=O)(=O)c1ccccc1)N1CCN(Cc2ccc(Cl)c(Cl)c2)CC1 (stereo not shown) [Example 266, 2-[2-(Benzenesulfonyl)-1,2,3,4-tetrahydro-pyrrolo[1,2-a]pyrazin-1-yl]-1-[4-[(3,4-dichlorophenyl)-methyl]-piperazin-1-yl]-ethanone] | -3.52%
COc1cc(C)c(S(=O)(=O)N2CCn3cccc3C2CC(=O)N2CCN(c3ccccc3F)CC2)c(C)c1 (stereo not shown) [Example 144, 1-[4-(2-Fluorophenyl)-piperazin-1-yl]-2-[2-[(4-methoxy-2,6-dimethyl-phenyl)sulfonyl]-1,2,3,4-tetrahydro-pyrrolo[1,2-a]pyrazin-1-yl]-ethanone] | 70.3%
